Experimental data as given in patent US20030232754A1, “Use of GLP-1 peptides” (priority 1996, published 2003).
Read-outs that look alike come from different tables or passages of the source. No end group written: not given here.

Legend:
[1] = tested on: Healthy human volunteers; experiment: Effect of iv infusion on satiety, hunger, fullness, appetite (visual analogue scale) and ad libitum energy intake in a double-blind crossover trial; format: in vivo
Source text: Healthy human volunteers (20 subjects) were in a double-blind crossover trial given an iv infusion of 50 pmol/(kg·h) of GLP-1(7-36)amide or saline on separate, but otherwise identical experimental days. The infusion was started at 9.00 and lasted until 15.00. At 9.45 the subjects received a fixed amount of breakfast and at 14.15 they had lunch of an identical composition but ad libitum. The subjects rated their feeling of satiety, hunger, fullness and appetite on a visual analogue scale every half hour. The results are given below:
The energy intake of each subjects was measured. The intakes were 3.9 MJ with GLP-1 and 4.3 MJ with Saline resulting in a p-value of 0.009.

[2] = tested on: rats; conditions: cited from earlier work
[3] = tested on: Mice; experiment: Appetite suppression in mice: sucrose consumption immediately after ip injection (Example 2); format: in vivo; conditions: mice fasted two days, ip 85 micrograms (3.4 mg/kg) in saline, tested immediately after injection, 10 minute period; p-value 0.002
Protocol: Mice were deprived of their normal food for two days and given free access to a 20% sucrose solution on the first day of food deprivation. After the two day food deprivation period, the mice were injected intraperitoneally with 0.5 ml of a solution containing the test substance. Immediately after injection, individual mice were placed in one of eight 15 cm square test boxes with a stainless steel grid floor and a glass drinking tube which projected into the box. […] Consumption of the sucrose solution was measured over a 10 minute period by electronically recording the total amount of contact with the sucrose solution during the test session. The degree of appetite suppression produced by a given test substance was determined by statistical comparison of the mean duration of sucrose consumption by control (vehicle treated) mice with that of mice treated with a test substance. The degree of appetite suppression in a treated group of mice was expressed as percent difference between the test and control group's response duration means. […]

[4] = tested on: Mice; experiment: Appetite suppression in mice: Complan consumption after subcutaneous injection (Example 4); format: in vivo; conditions: p<0.001
Protocol: The test method was as described in Example 3 except that the mice were pre-exposed to formula milk (Complan®—a nutritionally complete infant milk substitute) for one day, then fasted one day. On the test day, consumption of Complan® was measured for each mouse during a 10 min period.
Mice were tested for appetite suppression by subcutaneous injection of GLP-1(7-36)amide dissolved in phosphate buffered saline.

[5] = iv infusion 50 pmol/(kg·h), 9.00 to 15.00, 20 healthy subjects, rated every half hour, p = 0.007

GLP-1(1-37)
Energy intake ([1]; ad libitum lunch during iv infusion 50 pmol/(kg·h), saline 4.3 MJ, p-value 0.009): 3.9 mJ | Satiety (visual analogue scale rating) versus saline ([1]; iv infusion 50 pmol/(kg·h), 9.00 to 15.00, 20 healthy subjects, rated every half hour, p = 0.006): GLP-1 > Saline, p = 0.006 | Appetite (visual analogue scale rating) versus saline [1, 5]: GLP-1 < Saline, p = 0.007 | Hunger (visual analogue scale rating) versus saline [1, 5]: GLP-1 < Saline, p = 0.007 | Fullness (visual analogue scale rating) versus saline ([1]; iv infusion 50 pmol/(kg·h), 9.00 to 15.00, 20 healthy subjects, rated every half hour, p = 0.010): GLP-1 > Saline, p = 0.010 | Effect on food intake ([2]; intracerebroventricular administration, Tang-Christensen et al. 1996): profound effect | Effect on food intake ([2]; intracerebroventricular administration, Turton et al. 1996): profound effect | Effect on food intake ([2]; peripheral administration, Tang-Christensen et al. 1996): no significant effect

GLP-1(7-36)amide
Suppression of sucrose consumption [3]: 60% | Suppression of feeding (Complan consumption) ([4]; 1 mg/kg, 30 min after injection): 45% | Maximum effect, suppression of feeding (Complan consumption) ([4]; highest dose tested 20 mg/kg): 60%

GLP-1(1-36)amide (HDEFERHAEGTFTSDVSSYLEGQAAKEFIAWLVKGR-NH2; UniProt P01275 92-127, looked up, fragment) [fragment 1-36 of GLP-1 as C-terminal amide]
Effect on food intake ([2]; route not stated, Tang-Christensen et al. 1996): no effect
